Results published in patent US8044052B2, “Biaryl ether urea compounds” (Pfizer Inc., priority 2006, dated 2011).
Structures can show the parent of a compound that is named as a salt.

Biological target: T1, Human FAAH (Homo sapiens, UniProt O00519)
T1 construct: made in house
T1 sequence (O00519 1-579): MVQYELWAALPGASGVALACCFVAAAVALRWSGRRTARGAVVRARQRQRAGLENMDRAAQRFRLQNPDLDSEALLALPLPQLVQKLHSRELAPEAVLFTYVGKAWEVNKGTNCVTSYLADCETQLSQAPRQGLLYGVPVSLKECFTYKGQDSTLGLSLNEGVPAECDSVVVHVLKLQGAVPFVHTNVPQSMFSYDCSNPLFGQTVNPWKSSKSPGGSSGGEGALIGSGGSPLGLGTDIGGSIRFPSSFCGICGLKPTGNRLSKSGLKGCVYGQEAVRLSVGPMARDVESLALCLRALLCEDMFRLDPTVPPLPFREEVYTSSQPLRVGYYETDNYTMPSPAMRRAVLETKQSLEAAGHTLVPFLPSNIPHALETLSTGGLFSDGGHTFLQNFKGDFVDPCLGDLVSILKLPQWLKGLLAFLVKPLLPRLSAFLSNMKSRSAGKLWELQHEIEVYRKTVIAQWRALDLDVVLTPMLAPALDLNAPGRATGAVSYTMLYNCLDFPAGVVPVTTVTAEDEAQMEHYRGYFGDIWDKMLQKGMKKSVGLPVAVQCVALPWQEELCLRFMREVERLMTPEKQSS
Experiment: FAAH assay (glutamate dehydrogenase-coupled, oleamide substrate, absorbance at 340 nm)
Assay type: biochemical
Settings: irreversible inhibition, 1-4 nM FAAH, pH 7.4, 30° C., 90 min
Protocol: The FAAH assay was carried out in 384-well clear polystyrene plates in a total volume of 50 μl per well. All percents are by volume. To each well, was placed the reaction mixture (40 μl) containing 1-4 nM FAAH, 50 mM NaPi, pH 7.4, 3 mM α-ketoglutarate, 0.15 mM NADH, 7.5 U/ml glutamate dehydrogenase, 2 mM ADP, 1 mM EDTA, and 0.1% Triton X-100 (The concentration shown for each component is the final concentration in the assay). […] This was immediately followed by the addition of 5 μl oleamide (500 μM) dissolved in 75% EtOH/25% DMSO and the reaction mixture was mixed for 1.5 min. The final concentrations of DMSO and EtOH in the assay were each 7.5%.
Initial velocity data (V) were obtained from the slopes of the initial progressive curves. They were plotted as a function of substrate concentration and fit to the Michaelis-Menten equation (1) using Prism (GraphPad Software, Inc., San Diego, Calif.) software to obtain Km and Vmax values.
To obtain potencies of irreversible inhibitors, progressive curves consistent with first order inhibition kinetics (two-step irreversible inhibition mechanism) were fit to equation (2) by nonlinear least squares regressions to determine kobs values at each inhibitor concentration, where [P]t is the absorbance at time t, V0 is a constant related to the steady state rate of the uninhibited reaction, and kobs is the first order rate constant for enzyme inactivation. The inhibitor dissociation constant (Ki) and the first order rate
[formula] constant of enzyme inactivation at infinite inhibitor concentration (kinact) were then obtained by fitting the kobs vs. [I] curves to equation (3).

| Compound | hFAAH kinact/Ki |
| --- | --- |
| 4-(3-(5-methylpyridin-2-yloxy)benzylidene)-N-pyridin-3-yl)piperidine-1-carboxamide [Example 44] | 9480 M⁻¹ s⁻¹ |
| 4-(3-ethoxy-5-{[5-(trifluoromethyl)pyridin-2-yl]oxy}benzylidene)-N-pyridin-3-ylpiperidine-1-carboxamide trifluoroacetate [Example 74] | 9870 M⁻¹ s⁻¹ |
| O=C(Nc1ccccn1)N1CCC(=Cc2cccc(Oc3ccc(C(F)(F)F)cn3)c2)CC1 [Example 9] | 3660 M⁻¹ s⁻¹ |
| O=C(Nc1ccc2cc[nH]c2n1)N1CCC(=Cc2cccc(Oc3ccc(C(F)(F)F)cn3)c2)CC1 [Example 13, N-1H-pyrrolo[2,3-b]pyridin-6-yl-4-(3-{[5-(trifluoromethyl)pyridin-2-yl]oxy}benzylidene) piperidine-1-carboxamide] | 3870 M⁻¹ s⁻¹ |
| Cc1cnc(NC(=O)N2CCC(=Cc3cccc(Oc4ccc(C(F)(F)F)cn4)c3)CC2)cn1 [Example 22, N-(5-methyl-pyrazin-2-yll)-4-(3-{[5-(trifluoromethyl)pyridin-2-yl]oxy}benzylidene)piperidine-1-carboxamide] | 12000 M⁻¹ s⁻¹ |

Same assay, conditions: irreversible inhibition, 1-4 nM FAAH, pH 7.4, 30° C., 90 min, read-out: hFAAH kinact/Ki

| kinact/KI | Compound |
| --- | --- |
| 5050 M⁻¹ s⁻¹ | Cc1noc(NC(=O)N2CCC(=Cc3cccc(Oc4ccc(C(F)(F)F)cn4)c3)CC2)c1C [Example 2, N-(3,4-dimethylisoxazol-5-yl)-4-(3-{[5-(trifluoromethyl)pyridin-2-yl]oxy}benzylidene)piperidine-1-carboxamide] |
| 7800 M⁻¹ s⁻¹ | Cc1ccc(NC(=O)N2CCC(=Cc3cccc(Oc4ccc(C(F)(F)F)cn4)c3)CC2)cn1 [Example 3, N-(6-methylpyridin-3-yl)-4-(3-{[5-(trifluoromethyl)pyridin-2-yl]oxy}benzylidene)piperidine-1-carboxamide] |
| 2510 M⁻¹ s⁻¹ | O=C(Nc1onc2ccccc12)N1CCC(=Cc2cccc(Oc3ccc(C(F)(F)F)cn3)c2)CC1 [Example 6, N-2,1-benzisoxazol-3-yl-4-(3-{[5-(trifluoromethyl)pyridin-2-yl]oxy}benzylidene)piperidine-1-carboxamide] |
| 3070 M⁻¹ s⁻¹ | O=C(Nc1ccccc1)N1CCC(=Cc2cccc(Oc3ccc(C(F)(F)F)cn3)c2)CC1 [Example 10, N-phenyl-4-(3-{[5-(trifluoromethyl)pyridin-2-yl]oxy}benzylidene)piperidine-1-carboxamide] |
| 4040 M⁻¹ s⁻¹ | N#Cc1ccc(NC(=O)N2CCC(=Cc3cccc(Oc4ccc(C(F)(F)F)cn4)c3)CC2)cn1 [Example 11, N-(6-cyanopyridin-3-yl)-4-(3-{[5-(trifluoromethyl)pyridin-2-yl]oxy}benzylidene)piperidine-1-carboxamide hydrochloride] |
| 3190 M⁻¹ s⁻¹ | O=C(Nc1ccc2nn[nH]c2c1)N1CCC(=Cc2cccc(Oc3ccc(C(F)(F)F)cn3)c2)CC1 [Example 14, N-1H-1,2,3-benzotriazol-6-yl-4-(3-{[5-(trifluoromethyl)pyridin-2-yl]oxy}benzylidene)piperidine-1-carboxamide] |
| 1620 M⁻¹ s⁻¹ | O=C(Nc1cccnc1)N1CCC(=Cc2cccc(OCc3ccccc3)c2)CC1 [Example 17, 4-[3-(benzyloxy)benzylidene]-N-pyridin-3-ylpiperidine-1-carboxamide] |
| 2730 M⁻¹ s⁻¹ | O=C(Nc1onc2ccccc12)N1CCC(=Cc2cccc(Oc3ccc(F)cc3)c2)CC1 [Example 18, N-2,1-benzisoxazol-3-yl-4-[3-(4-fluorophenoxy)benzylidene]piperidine-1-carboxamide] |
| 3450 M⁻¹ s⁻¹ | Cc1noc(NC(=O)N2CCC(=Cc3cccc(Oc4ccc(F)cc4)c3)CC2)c1C [Example 19, N-(3,4-dimethylisoxazol-5-yl)-4-[3-(4-fluorophenoxy)benzylidene]piperidine-1-carboxamide] |
| 2380 M⁻¹ s⁻¹ | O=C(Nc1cccnc1)N1CCC(=Cc2cccc(Oc3ccc(F)cc3)c2)CC1 [Example 20, 4-[3-(4-fluorophenoxy)benzylidene]-N-pyridin-3-ylpiperidine-1-carboxamide] |
| 1850 M⁻¹ s⁻¹ | O=C(Nc1cnc(-c2ccccc2)cn1)N1CCC(=Cc2cccc(Oc3ccc(C(F)(F)F)cn3)c2)CC1 [Example 21, N-(5-phenyl-pyrazin-2-yl)-4-(3-{[5-(trifluoromethyl)pyridin-2-yl]oxy}benzylidene)piperidine-1-carboxamide] |

Further lines, the compound ahead of its results:

| Compound | kinact/KI |
| --- | --- |
| O=C(Nc1cccnc1)N1CCC(=Cc2cccc(Oc3ccc(C(F)(F)F)cn3)c2)CC1 [Example 1, N-pyridin-3-yl-4-(3-{[5-(trifluoromethyl)pyridin-2-yl]oxy}benzylidene)piperidine-1-carboxamide] | 13300 M⁻¹ s⁻¹ |
| O=C(Nc1cnccn1)N1CCC(=Cc2cccc(Oc3ccc(C(F)(F)F)cn3)c2)CC1 [Example 4, N-pyrazin-2-yl-4-(3-{[5-(trifluoromethyl)pyridin-2-yl]oxy}benzylidene)piperidine-1-carboxamide] | 25800 M⁻¹ s⁻¹ |
| O=C(Nc1cccnn1)N1CCC(=Cc2cccc(Oc3ccc(C(F)(F)F)cn3)c2)CC1 [Example 5, N-pyridazin-3-yl-4-(3-{[5-(trifluoromethyl)pyridin-2-yl]oxy}benzylidene)piperidine-1-carboxamide] | 24700 M⁻¹ s⁻¹ |
| Cc1cncc(NC(=O)N2CCC(=Cc3cccc(Oc4ccc(C(F)(F)F)cn4)c3)CC2)c1 [Example 7, N-(5-methylpyridin-3-yl)-4-(3-{[5-(trifluoromethyl)pyridin-2-yl]oxy}benzylidene)piperidine-1-carboxamide] | 2880 M⁻¹ s⁻¹ |
| COc1ccc(NC(=O)N2CCC(=Cc3cccc(Oc4ccc(C(F)(F)F)cn4)c3)CC2)cn1 [Example 8, N-(6-methoxypyridin-3-yl)-4-(3-{[5-(trifluoromethyl)pyridin-2-yl]oxy}benzylidene)piperidine-1-carboxamide] | 10100 M⁻¹ s⁻¹ |
| COc1cnc(NC(=O)N2CCC(=Cc3cccc(Oc4ccc(C(F)(F)F)cn4)c3)CC2)cn1 [Example 12, N-(5-methoxypyrazin-2-yl)-4-(3-{[5-(trifluoromethyl)pyridin-2-yl]oxy}benzylidene)piperidine-1-carboxamide] | 10800 M⁻¹ s⁻¹ |
| O=C(NC(=O)N1CCC(=Cc2cccc(Oc3ccc(C(F)(F)F)cn3)c2)CC1)c1ccccn1 [Example 15, N-{[4-(3-{[5-(trifluoromethyl)pyridin-2-yl]oxy}benzylidene)piperidin-1-yl]carbonyl}pyridine-2-carboxamide] | 12900 M⁻¹ s⁻¹ |
| Cc1cccc(C(=O)NC(=O)N2CCC(=Cc3cccc(Oc4ccc(C(F)(F)F)cn4)c3)CC2)n1 [Example 16, 6-methyl-N-{[4-(3-{[5-(trifluoromethyl)pyridin-2-yl]oxy}benzylidene)piperidin-1-yl]carbonyl}pyridine-2-carboxamide] | 2150 M⁻¹ s⁻¹ |
| COc1cncc(NC(=O)N2CCC(=Cc3cccc(Oc4ccc(C(F)(F)F)cn4)c3)CC2)n1 [Example 23, N-(6-methoxypyrazin-2-yl)-4-(3-{[5-(trifluoromethyl)pyridin-2-yl]oxy}benzylidene)piperidine-1-carboxamide] | 2910 M⁻¹ s⁻¹ |
| Cc1nccnc1NC(=O)N1CCC(=Cc2cccc(Oc3ccc(C(F)(F)F)cn3)c2)CC1 [Example 24, N-(3-methylpyrazin-2-yl)-4-(3-{[5-(trifluoromethyl)pyridin-2-yl]oxy}benzylidene)piperidine-1-carboxamide] | 2410 M⁻¹ s⁻¹ |
| O=C(Nc1ccnnc1)N1CCC(=Cc2cccc(Oc3ccc(C(F)(F)F)cn3)c2)CC1 [Example 25, N-(pyridazin-4-yl)-4-(3-{[5-(trifluoromethyl)pyridin-2-yl]oxy}benzylidene)piperidine-1-carboxamide] | 12100 M⁻¹ s⁻¹ |
| COc1ccc(NC(=O)N2CCC(=Cc3cccc(Oc4ccc(C(F)(F)F)cn4)c3)CC2)nn1 [Example 26, N-(6-methoxypyridazin-3-yl)-4-(3-{[5-(trifluoromethyl)pyridin-2-yl]oxy}benzylidene)piperidine-1-carboxamide] | 11000 M⁻¹ s⁻¹ |
| O=C(Nc1cncc(Cl)n1)N1CCC(=Cc2cccc(Oc3ccc(C(F)(F)F)cn3)c2)CC1 [Example 27, N-(6-chloropyrazin-2-yl)-4-(3-{[5-(trifluoromethyl)pyridin-2-yl]oxy}benzylidene)piperidine-1-carboxamide] | 3900 M⁻¹ s⁻¹ |
